The values that follow come from patent publication EP1437348A1, “6-methyl-2,4-diamino-pyrimidine derivatives, process for preparation, compositions containing them and their uses as basic neutralising agents” (L'OREAL, priority 2003, dated 2004).

Each structure is given as a SMILES string. Values after ≈ are worked out from the molar mass of the structure shown. Where two headings read alike, the source gives them in different places. Some results are limits rather than exact numbers.

Data set [1] can be described thus: Ionisation constants by potentiometric titration. It is filed as physicochemical. To be noted: read-out: pKa expérimental. As to the method: Les constantes d'ionisation sont déterminées expérimentalement par titrage potentiométrique suivant les conditions opératoires décrites ci-dessous et évaluées par le logiciel de prédiction ACD/pK DB, Version 5.12.
Conditions opératoires du titrage potentiométrique • Matériel utilisé : (Radiometer-Tacussel) : • titrateur TIM 900 • passeur d'échantillons SAC 90 • logiciel Tim Talk 9 • - Prise d'essai : 10^-4 mole • - Mise en solution : (solubilisation avec passeur d'échantillons) • 5 ml du mélange DMSO 70 / Ethanol 10 / Eau 20 (agitation 3 minutes avec barbotage d'azote) • 10 ml d'une solution de NaCl 0.225M dans eau 80 / DMSO 20 (agitation 3 minutes avec barbotage d'azote) • - Méthode de titrage : • Etalonnage de l'électrode entre pH4 et pH10 • Titrage direct par NaOH 1N ou après ajout d'HCl 1N • Détection d'inflexion avec ajout continu du titrant • vitesse d'addition mini : 1%/min • vitesse d'addition maxi : 1%/min • Flux d'azote à la surface de la solution pendant le titrage • - Calculs : • 2 fonctions polynomiales sont utilisées pour obtenir le pKa dans l'eau en milieu NaCl 0.15M : • pour les fonctions acides : pKaH2O = -0,0208(pKasolvant)^2 + 1,257pKasolvant - 1,6 • pour les fonctions basiques :pKaH2O = -0,0208(pKasolvant)^2 + 1,257pKasolvant - 0,75

In the next data set the test system is Candida albicans. Briefly: Minimal inhibitory concentration (CMI), Alamar Blue broth method. It is filed as cell-based. To be noted: ATCC10231, ATCC #10231, lowest concentration with growth inhibition ≥ 90%, 16 h contact at 37°C. The source says: (§1) La méthode de détermination de l'activité anti-microbienne des composés selon l'invention fait intervenir la mesure de la Concentration Minimale Inhibitrice (CMI) vis-à-vis de 2 bactéries gram- (E. coli et P. aeruginosa), d'une bactérie gram+ (S. aureus) et d'une levure (C. albicans). Cette méthode a été effectuée selon la méthode décrite dans les articles suivants: - Baker C.N., Banerjee S.N. and Tenover F.C. : Evaluation of Alamar colorimetric MIC Method for antimicrobial susceptibility testing of gram-negative bacteria. J. Clin. Microbiol. (1994), 32, 1261-1267; - Baker C.N. and Tenover F.C. : Evaluation of Alamar colorimetric broth microdilution susceptibility testing method for staphylococci and enterococci. J. Clin. Microbiol. (1996), 34, 2654-2659. Les souches bactériennes utilisées au départ sous forme de disques lyophilisés calibrés sont réhydratées en suivant les indications du fournisseur (Fisher Scientific S.A.)
(§2) Les souches sont ensemencées dans du milieu Trypto-caseine-soja. La mise en contact du composé à tester solubilisé dans l'eau, avec les souches en phase de croissance s'effectue en milieu liquide. Après 16 heures de contact du composé avec les bactéries (37°C), de l'Alamar Blue est ajouté comme indicateur métabolique de la viabilité de cellules variées et de bactéries. La réduction de l'indication est proportionnelle à l'activité métabolique des bactéries. A l'issue de l'incubation d'une durée de 2h (sauf pour C. albicans pour laquelle l'incubation est de 4h), l'activité métabolique des bactéries est évaluée par une lecture en absorbance ou en fluorescence. En fluorescence, les lectures sont réalisées à 544nm (Excitation) et à 590nm (Emission). Les composés les plus actifs sont sélectionnés et un effet dose (8 concentrations) est ensuite réalisé comme précédemment. La Concentration Minimale Inhibitrice (C.M.I.) a alors été déterminée comme étant la concentration la plus faible du composé testé pour laquelle était observée une inhibition de croissance de la bactérie ou de la levure ≥ 90%.
(The colour change of resazurin is a common sign of viable cells or microbes.)

In the next data set the test system is Staphylococcus aureus. The data set is described as above. The data set is classed as cell-based. To be noted: ATCC6538, ATCC #6538, lowest concentration with growth inhibition ≥ 90%, 16 h contact at 37°C, read-out: CMI S.aureus.
From the text: as §1, §2

Another data set relates to Escherichia coli. Described as above. To be noted: ATCC8739, ATCC #8739, lowest concentration with growth inhibition ≥ 90%, 16 h contact at 37°C, read-out: CMI E.coli. It is filed as cell-based.
From the text: as §1, §2

For the next data set, the system named is Pseudomonas aeruginosa. The data set is described as above. It is filed as cell-based. To be noted: ATCC9027, ATCC #9027, lowest concentration with growth inhibition ≥ 90%, 16 h contact at 37°C, read-out: CMI P.aeruginosa.
From the text: as §1, §2

[2] abbreviates: water, nacl 0.15m, dans l'eau, NaCl 0,15M, reference molecules entered in the database used for the prediction.

By pKa is commonly meant the negative logarithm of the acid dissociation constant. On to `Nc1ncccn1` [2-aminopyrimidine, reference compound], for which, in data set [1] (setting [2]), the pKa is 3.9.
Turning to `Nc1ccncn1` [4-aminopyrimidine, reference compound], the pKa in data set [1] (setting [2]) is 6.
Regarding `Cc1cc(NCc2ccco2)nc(N)n1` [Comparatif (DE 3717480), reference compound], the MIC against Candida albicans was over 10000 µg/mL; in the data set on Staphylococcus aureus, 626 µg/mL (≈ 3.06 mM); with Escherichia coli, over 10000 µg/mL; with Pseudomonas aeruginosa, over 10000 µg/mL.
For `Nc1nc(N2CCCCC2)cc(C(F)(F)F)n1` [Comparatif (DE 19917784), reference compound], the MIC with Candida albicans, in the data set with Staphylococcus aureus, in the data set with Escherichia coli and in the data set on Pseudomonas aeruginosa was over 5000 µg/mL each time.
As for `CO[Si](C)(C)CCCCNc1cc(C)nc(N)n1` [Composé A, 4-N-[4-(méthoxy-dimethylsilyl)-butyl]-6-methyl-pyrimidine - 2,4-diamine], the MIC against Candida albicans was found to be 156 µg/mL (≈ 0.581 mM); with Staphylococcus aureus it was 78 µg/mL (≈ 0.291 mM); in the data set on Escherichia coli, 78 µg/mL (≈ 0.291 mM); in the data set with Pseudomonas aeruginosa, 156 µg/mL (≈ 0.581 mM).
Consider `Cc1cc(NCC2CCNCC2)nc(N)n1` [Composé B, 4-N-[4-piperidinylmethyl]-6-methyl-pyrimidine-2,4-diamine], for which the MIC against Candida albicans was 5000 µg/mL (≈ 22.6 mM); with Staphylococcus aureus, 2500 µg/mL (≈ 11.3 mM); in the data set with Escherichia coli it was 1250 µg/mL (≈ 5.65 mM); in the data set on Pseudomonas aeruginosa it was 250 µg/mL (≈ 1.13 mM).
On to `Cc1cc(NC[C@@H]2CCCN2)nc(N)n1` [Composé C], for which the MIC in the data set with Candida albicans was determined as 2500 µg/mL (≈ 12.1 mM); with Staphylococcus aureus, 2500 µg/mL (≈ 12.1 mM); in the data set on Escherichia coli, 5000 µg/mL (≈ 24.1 mM); with Pseudomonas aeruginosa, 5000 µg/mL (≈ 24.1 mM).
Consider `Cc1cc(N2CCCN(CCCN3CCCC3)CC2)nc(N)n1` [Composé D, 4-methyl-6-[4-(3-pyrrolidin-1-yl-propyl)-[1,4]diazepan-1-yl]-pyrimidin-2-ylamine], for which the results for the MIC in the data set on Staphylococcus aureus, in the data set on Escherichia coli and in the data set with Pseudomonas aeruginosa were 5000 µg/mL (≈ 15.7 mM), 5000 µg/mL (≈ 15.7 mM) and over 5000 µg/mL, respectively.
In the case of `Cc1cc(N2CCc3cc(O)c(O)cc3C2)nc(N)n1` [Composé E, 2-(2-amino-6-methyl-pyrimidin-4-yl)-1,2,3,4-tetrahydro-isoquinoline-6,7-diol], the MIC against Candida albicans is 1250 µg/mL (≈ 4.59 mM); with Staphylococcus aureus, 1250 µg/mL (≈ 4.59 mM); with Escherichia coli it was 625 µg/mL (≈ 2.3 mM); with Pseudomonas aeruginosa, 5000 µg/mL (≈ 18.4 mM).
Take `Cc1cc(N2CCN(CCN(C)C)CC2)nc(N)n1` [Composé F, 4-[4-(2-dimethylamino-ethyl)-piperazin-1-yl]-6-methyl-pyrimidin-2-ylamine]: the MIC against Candida albicans is 5000 µg/mL (≈ 18.9 mM); in the data set with Staphylococcus aureus it was 5000 µg/mL (≈ 18.9 mM); with Escherichia coli, 2500 µg/mL (≈ 9.46 mM); with Pseudomonas aeruginosa, over 5000 µg/mL.
For `Cc1cc(NCC(C)(C)N)nc(N)n1` [Composé G, N4-(2-amino-2-methyl-propyl)-6-methyl-pyrimidine-2,4-diamine], the MIC stood at 2500 µg/mL (≈ 12.8 mM) against Candida albicans, 5000 µg/mL (≈ 25.6 mM) with Staphylococcus aureus, 2500 µg/mL (≈ 12.8 mM) in the data set with Escherichia coli and 2500 µg/mL (≈ 12.8 mM) in the data set on Pseudomonas aeruginosa.
For `Cc1cc(NCCN2CCNCC2)nc(N)n1` [Composé H, 4-N-(2-piperazin-1-yl-ethyl)-6-methyl-pyrimidine – 2,4-diamine], the MIC with Candida albicans stood at 2500 µg/mL (≈ 10.6 mM); in the data set on Staphylococcus aureus, 1250 µg/mL (≈ 5.29 mM); in the data set with Escherichia coli, 2500 µg/mL (≈ 10.6 mM); with Pseudomonas aeruginosa it was 5000 µg/mL (≈ 21.2 mM).
As for `Cc1cc(NCc2ccc(C)o2)nc(N)n1` [Composé I, 4-N-(5-methyl-furan-2-ylmethyl)---6-methyl-pyrimidine – 2,4-diamine], the MIC worked out at 625 µg/mL (≈ 2.86 mM) against Candida albicans, 625 µg/mL (≈ 2.86 mM) in the data set on Staphylococcus aureus, 1250 µg/mL (≈ 5.73 mM) in the data set with Escherichia coli and 2500 µg/mL (≈ 11.5 mM) in the data set with Pseudomonas aeruginosa.
For `Cc1cc(N2CCN(C3CCN(C)CC3)CC2)nc(N)n1` [Composé J, 4-methyl-6-[4-(1-methyl-piperidin-4-yl)-piperazin-1-yl]-pyrimidin-2-ylamine], the MIC was 5000 µg/mL (≈ 17.2 mM) against Candida albicans, 5000 µg/mL (≈ 17.2 mM) in the data set with Staphylococcus aureus, 2500 µg/mL (≈ 8.61 mM) in the data set on Escherichia coli and over 5000 µg/mL in the data set on Pseudomonas aeruginosa.
As for `Cc1cc(N2CCN(c3ncccn3)CC2)nc(N)n1` [Composé K, 4-methyl-6-(4-pyrimidin-2-yl-piperazin-1-yl)-pyrimidin-2-ylamine], the MIC in the data set with Candida albicans is 625 µg/mL (≈ 2.3 mM); with Staphylococcus aureus, 5000 µg/mL (≈ 18.4 mM); in the data set on Escherichia coli, 2500 µg/mL (≈ 9.21 mM); with Pseudomonas aeruginosa, over 5000 µg/mL.
The like results for `Cc1cc(NCC2CCCC(CN)C2)nc(N)n1` (stereo not drawn) [Composé L, 4-N-(3-aminomethyl-cyclohexylmethyl)-6-methyl-pyrimidine-2,4-diamine] were, in that order, 1250 µg/mL (≈ 5.01 mM), 2500 µg/mL (≈ 10 mM), 2500 µg/mL (≈ 10 mM) and 2500 µg/mL (≈ 10 mM).
Take `CCCCCCNc1cc(C)nc(N)n1` [Composé N, 4-N-Hexyl-6-methyl-pyrimidine-2,4-diamine]: the pKa in data set [1] (function NH^+/N (pyrimidine motif), pKa in water, NaCl 0.15M, obtained from the solvent pKa by a polynomial function) worked out at 8.35. The MIC worked out at 160 µg/mL (≈ 0.768 mM) in the data set with Candida albicans, 630 µg/mL (≈ 3.02 mM) in the data set on Staphylococcus aureus, 310 µg/mL (≈ 1.49 mM) with Escherichia coli and 2500 µg/mL (≈ 12 mM) in the data set on Pseudomonas aeruginosa.
In the case of `COc1cccc(Nc2cc(C)nc(N)n2)c1` [reference compound], the MIC against Candida albicans is 1250 µg/mL (≈ 5.43 mM); in the data set with Staphylococcus aureus, over 5000 µg/mL; with Escherichia coli, over 5000 µg/mL; with Pseudomonas aeruginosa, over 5000 µg/mL.
